The values below come from ChEMBL document CHEMBL4680261, “DDX3X inhibitors, an effective way to overcome HIV-1 resistance targeting host proteins” (Eur J Med Chem, 2020).

Data set [1] deals with Human immunodeficiency virus 1. As to the kind of experiment: Antiviral activity against HIV-1 NL4-3 infected in human TZM-bl cells infected with supernatants from virus-infected human H9 cells treated with compound for 72 hrs assessed as reduction in luciferase expression measured after 48 hrs by luciferase reporter gene assay based BiCycle assay. It counts as functional, organism-based. The following applies: Human immunodeficiency virus 1, NL4-3.

The target in data set [2] is ATP-dependent RNA helicase DDX3X (Homo sapiens, UniProt O00571). As to the kind of experiment: Inhibition of human DDX3X using dsRNA as substrate measured every 30 sec for 40 mins by FRET assay.
Data set [3] is described as follows: Apparent permeability of compound incubated for 5 hrs by PAMPA assay. The format is ADME.
The nature of data set [4]: Metabolic stability in human liver microsomes assessed as parent compound remaining measured after 60 mins by LC-UV-MS analysis. The format is ADME, Microsome. The settings on record: read-out: Stabilty. (Liver microsomes are a subcellular fraction often used to study metabolism.)

Chain of ATP-dependent RNA helicase DDX3X (O00571 whole entry): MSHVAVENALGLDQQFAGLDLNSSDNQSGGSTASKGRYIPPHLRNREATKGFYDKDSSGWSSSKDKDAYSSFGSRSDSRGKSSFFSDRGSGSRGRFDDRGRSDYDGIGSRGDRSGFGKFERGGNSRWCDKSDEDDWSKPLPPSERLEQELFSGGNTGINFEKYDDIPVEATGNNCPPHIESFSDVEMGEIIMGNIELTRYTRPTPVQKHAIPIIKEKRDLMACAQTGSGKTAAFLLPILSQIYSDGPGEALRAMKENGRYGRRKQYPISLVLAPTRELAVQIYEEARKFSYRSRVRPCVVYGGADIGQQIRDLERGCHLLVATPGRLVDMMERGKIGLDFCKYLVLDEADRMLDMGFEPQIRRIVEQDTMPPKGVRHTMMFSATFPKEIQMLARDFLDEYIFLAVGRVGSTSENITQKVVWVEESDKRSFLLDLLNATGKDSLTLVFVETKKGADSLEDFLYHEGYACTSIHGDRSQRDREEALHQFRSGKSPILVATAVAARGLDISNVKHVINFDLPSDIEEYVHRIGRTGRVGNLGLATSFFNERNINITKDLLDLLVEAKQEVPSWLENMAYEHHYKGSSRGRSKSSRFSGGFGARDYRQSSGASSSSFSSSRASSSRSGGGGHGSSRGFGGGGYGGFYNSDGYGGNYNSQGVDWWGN

Consider `CCCCc1cn(-c2ccc(NC(=O)Nc3ccccc3C)cc2)nn1`, for which the concentration for half-maximal inhibition (IC50) (usually the point on the concentration scale where inhibition reaches its midpoint) in data set [1] was 1110 nM.
With `CCCCc1cn(-c2ccc(NC(=O)Nc3cc(O[C@H]4O[C@@H](CO)[C@H](O)[C@@H]4O)ccc3C)cc2)nn1`, the IC50 was more than 50000 nM in data set [1] and “Not Active” in data set [2].
With `CCOP(=O)(OCC)OCCc1cn(-c2ccc(NC(=O)Nc3ccccc3C)cc2)nn1`, the 50% inhibitory concentration (IC50) in data set [1] is more than 50000 nM. Besides, in data set [3], the Papp (commonly a coefficient for how fast a substance crosses the barrier) at 5 h turned out to be 0.72 ×10⁻⁶ cm/s. Further, the remaining at 1 h in data set [4] stood at 53.7%.
Regarding `CCCCc1cn(-c2ccc(NC(=O)Nc3cc(O)ccc3C)cc2)nn1`, in data set [2] (read-out: IC50), the 50% inhibitory concentration (IC50) stood at 490 nM.
Same read-out and setting: then `CCCCc1cn(-c2ccc(NC(=O)Nc3cc(OCOC)ccc3C)cc2)nn1`, with 820 nM.
As for `CCCCc1cn(-c2ccc(NC(=O)Nc3cc(OC4CCCC4)ccc3C)cc2)nn1`, the 50% inhibitory concentration (IC50) in data set [1] worked out at 200 nM; in data set [2] (read-out: IC50), 140 nM. For the same molecule, the apparent permeability coefficient (Papp) at 5 h in data set [3] was 1.96 ×10⁻⁶ cm/s. Also, in data set [4], the remaining at 1 h was 92.5%.
`Cc1ccccc1NC(=O)Nc1ccc(-n2cc(CCN3CCOCC3)nn2)cc1`: in data set [2] (read-out: IC50), the IC50 was 59700 nM.
On to `CCCCc1cn(-c2ccc(NC(=O)Nc3cccc4cnccc34)cc2)nn1`, for which the IC50 turned out to be 2200 nM in data set [1] and 150 nM in data set [2] (read-out: IC50). The apparent permeability coefficient (Papp) at 5 h in data set [3] was less than 0.1 ×10⁻⁶ cm/s. In addition, the remaining at 1 h in data set [4] was 95.2%.
For `Cc1ccccc1NC(=O)Nc1ccc(-n2cc(CN3CCOCC3)nn2)cc1`, in data set [2], the half-inhibitory concentration (IC50) entry was “Not Active”.
Take `Cc1ccccc1NC(=O)Nc1ccc(-n2cc(CCCN3CCOCC3)nn2)cc1`: in data set [2] (read-out: IC50), the 50% inhibitory concentration (IC50) came to 53800 nM.
